Laboratory results: patent US8552021B2, “Phosphoramidate derivatives of nucleosides” (Janssen Products, L.P., priority 2009, dated 2013)
Read-outs that look alike come from different tables or passages of the source.

Legend:
Format in all cases: cell-based
[1] = test system: Huh-7; assay: Cytotoxicity CC50 in Huh-7; settings: Huh-7 cells
Source text: (§1) The in vitro antiviral activity against HCV of the compounds of formula I can be tested in a cellular HCV replicon system based on Lohmann et al. (1999) Science 285:110-113, with the further modifications described by Krieger et al. (2001) Journal of Virology 75: 4614-4624 (incorporated herein by reference), which is further exemplified in the examples section. This model, while not a complete infection model for HCV, is widely accepted as the most robust and efficient model of autonomous HCV RNA replication currently available. […] It will be appreciated that it is important to distinguish between compounds that specifically interfere with HCV functions from those that exert cytotoxic or cytostatic effects in the HCV replicon model, and as a consequence cause a decrease in HCV RNA or linked reporter enzyme concentration. Assays are known in the field for the evaluation of cellular cytotoxicity based for example on the activity of mitochondrial enzymes using fluorogenic redox dyes such as resazurin. Furthermore, cellular counter screens exist for the evaluation of non-selective inhibition of linked reporter gene activity, such as firefly luciferase. Appropriate cell types can be equipped by stable transfection with a luciferase reporter gene whose expression is dependent on a constitutively active gene promoter, and such cells can be used as a counter-screen to eliminate non-selective inhibitors.

[2] = test system: HCV type 1b replicon in Huh-7 luc/neo (Huh-Luc) cells; assay: HCV replicon assay (Huh-Luc luciferase); settings: three days incubation, luciferase activity, average where tested more than once, read-out: EC50 1b ET
Source text: The compounds of formula I are examined for activity in the inhibition of HCV RNA replication in a cellular assay. […] The cellular assay can be based on a bicistronic expression construct, as described by Lohmann et al. (1999) Science vol. 285 pp. 110-113 with modifications described by Krieger et al. (2001) Journal of Virology 75: 4614-4624, in a multi-target screening strategy. The Bartenschlager replicon assays are available commercially from ReBLikon GmbH in Mainz, Germany.
In essence, the method is as follows.
The assay utilized the stably transfected cell line Huh-7 luc/neo (hereafter referred to as Huh-Luc). This cell line harbors an RNA encoding a bicistronic expression construct comprising the wild type NS3—NS5B regions of HCV type 1b translated from an Internal Ribosome Entry Site (IRES) from encephalomyocarditis virus (EMCV), preceded by a reporter portion (FfL-luciferase), and a selectable marker portion (neo^R, neomycine phosphotransferase). The construct is bordered by 5′ and 3′ NTRs (non-translated regions) from HCV type lb. Continued culture of the replicon cells in the presence of G418 (neo^R) is dependent on the replication of the HCV RNA. The stably transfected replicon cells that express HCV RNA, which replicates autonomously and to high levels, encoding inter alia luciferase, are used for screening the antiviral compounds.
The replicon cells were plated in well plates in the presence of the test and control compounds, which were added in various concentrations. Following an incubation of three days, HCV replication was measured by assaying luciferase activity (using standard luciferase assay substrates and reagents and a Perkin Elmer ViewLux™ ultraHTS microplate imager). Replicon cells in the control cultures have high luciferase expression in the absence of any inhibitor. The inhibitory activity of the compound on luciferase activity was monitored on the Huh-Luc cells, enabling a dose-response curve for each test compound. EC50 values were then calculated, which value represents the amount of the compound required to decrease by 50% the level of detected luciferase activity, or more specifically, the ability of the genetically linked HCV replicon RNA to replicate. Where a compound of formula (I) was tested more than once in the replicon assay, the average of all test results is given in Table 1.

[3] = Cytotoxicity CC50 in Huh-7; settings: human; Huh-7 cells
Source text: as §1

Structure (SMILES) | CC50 [1] [µM] | EC50 [2] [µM] | CC50 [3] [µM] | EC50 ([2]; Hepatitis C virus, Huh-7, 72 h) [µM]
CCCC(CCC)COC(=O)C(C)NP(=O)(OCC1(N=[N+]=[N-])OC(n2ccc(=O)[nH]c2=O)C(C)C1O)Oc1ccccc1 (mixture of isomers) [Compound I-3] | 30.7 | 8.06 | – | –
CC(NP(=O)(OCC1(N=[N+]=[N-])OC(n2ccc(=O)[nH]c2=O)C(C)C1O)Oc1cccc2ccccc12)C(=O)OCc1ccccc1 (mixture of isomers) [Compound I-11] | > 100 | 13.8 | – | –
CCCC(CCC)COC(=O)C(C)NP(=O)(OCC1(N=[N+]=[N-])OC(n2ccc(=O)[nH]c2=O)C(C)C1O)Oc1ccc(Cl)cc1 (mixture of isomers) [Compound I-15] | > 100 | 15.3 | – | –
CCOC(=O)C(C)NP(=O)(OCC1(N=[N+]=[N-])OC(n2ccc(=O)[nH]c2=O)C(C)C1O)Oc1ccccc1 (mixture of isomers) [Compound I-16] | > 98.3 | 16.4 | – | –
COCCOC(=O)C(C)NP(=O)(OCC1(N=[N+]=[N-])OC(n2ccc(=O)[nH]c2=O)C(C)C1O)Oc1ccccc1 (mixture of isomers) [Compound I-23] | > 98.3 | 32.1 | – | –
CCOC(=O)C(C)NP(=O)(OCC1(N=[N+]=[N-])OC(n2ccc(=O)[nH]c2=O)C(C)C1O)Oc1cc(C)c(Cl)cc1C(C)C (mixture of isomers) [Compound I-24] | 55 | 37.7 | – | –
CCOC(=O)[C@H](C)NP(=O)(OC[C@@]1(N=[N+]=[N-])O[C@@H](n2ccc(=O)[nH]c2=O)[C@@H](C)[C@@H]1O)Oc1ccccc1 (single isomer, unassigned) [Compound I-8] | > 98.3 | 12 | – | –
CCOC(=O)[C@H](C)NP(=O)(OC[C@@]1(N=[N+]=[N-])O[C@@H](n2ccc(=O)[nH]c2=O)[C@@H](C)[C@@H]1O)Oc1ccccc1 (single isomer, unassigned) [Compound I-17] | > 98.3 | 17.3 | – | –
CC(NP(=O)(OC[C@@]1(N=[N+]=[N-])O[C@@H](n2ccc(=O)[nH]c2=O)[C@@H](C)[C@@H]1O)Oc1ccccc1)C(=O)OCc1ccccc1 (stereo partly shown) [Compound I-1] | – | – | > 100 | 5.95
CCCCOC(=O)C(C)NP(=O)(OC[C@@]1(N=[N+]=[N-])O[C@@H](n2ccc(=O)[nH]c2=O)[C@@H](C)[C@@H]1O)Oc1ccccc1 (stereo partly shown) [Compound I-4] | – | – | > 98.3 | 9.33
CCCCCOC(=O)C(C)NP(=O)(OC[C@@]1(N=[N+]=[N-])O[C@@H](n2ccc(=O)[nH]c2=O)[C@@H](C)[C@@H]1O)Oc1ccccc1 (stereo partly shown) [Compound I-5] | – | – | > 98.3 | 9.48
CC(NP(=O)(OC[C@@]1(N=[N+]=[N-])O[C@@H](n2ccc(=O)[nH]c2=O)[C@@H](C)[C@@H]1O)Oc1ccccc1)C(=O)OC1CCCC1 (stereo partly shown) [Compound I-6] | – | – | > 98.3 | 10.5
CC(NP(=O)(OC[C@@]1(N=[N+]=[N-])O[C@@H](n2ccc(=O)[nH]c2=O)[C@@H](C)[C@@H]1O)Oc1ccccc1)C(=O)OC1CCCCC1 (stereo partly shown) [Compound I-7] | – | – | > 98.3 | 11.2
CCCC(CCC)COC(=O)[C@H](C)NP(=O)(O)OC[C@@]1(N=[N+]=[N-])O[C@@H](n2ccc(=O)[nH]c2=O)[C@@H](C)[C@@H]1O [Compound I-9] | – | 15.8 | – | –
CCCOC(=O)C(C)NP(=O)(OC[C@@]1(N=[N+]=[N-])O[C@@H](n2ccc(=O)[nH]c2=O)[C@@H](C)[C@@H]1O)Oc1ccccc1 (stereo partly shown) [Compound I-10] | – | – | > 98.3 | 12.9
C[C@@H]1[C@H](n2ccc(=O)[nH]c2=O)O[C@@](COP(=O)(NC(C)(C)C(=O)OCc2ccccc2)Oc2ccccc2)(N=[N+]=[N-])[C@H]1O (stereo partly shown) [Compound I-12] | – | – | > 100 | 13.9

Structure (SMILES) | CC50 [1] [µM] | EC50 [2] [µM] | CC50 [3] [µM] | EC50 ([2]; Hepatitis C virus, Huh-7, 72 h) [µM]
CCCCOC(=O)C(C)(C)NP(=O)(OC[C@@]1(N=[N+]=[N-])O[C@@H](n2ccc(=O)[nH]c2=O)[C@@H](C)[C@@H]1O)Oc1ccccc1 (stereo partly shown) [Compound I-13] | – | – | 88.5 | 13.1
CC(C)OC(=O)C(C)NP(=O)(OC[C@@]1(N=[N+]=[N-])O[C@@H](n2ccc(=O)[nH]c2=O)[C@@H](C)[C@@H]1O)Oc1ccccc1 (stereo partly shown) [Compound I-14] | – | – | > 100 | 14.9
COC(=O)C(C)NP(=O)(OC[C@@]1(N=[N+]=[N-])O[C@@H](n2ccc(=O)[nH]c2=O)[C@@H](C)[C@@H]1O)Oc1ccccc1 (stereo partly shown) [Compound I-18] | – | – | > 98.3 | 27
CCCCOC(=O)C(CC)NP(=O)(OC[C@@]1(N=[N+]=[N-])O[C@@H](n2ccc(=O)[nH]c2=O)[C@@H](C)[C@@H]1O)Oc1ccccc1 (stereo partly shown) [Compound I-20] | – | – | > 73.9 | 28
CCC(NP(=O)(OC[C@@]1(N=[N+]=[N-])O[C@@H](n2ccc(=O)[nH]c2=O)[C@@H](C)[C@@H]1O)Oc1ccccc1)C(=O)OCc1ccccc1 (stereo partly shown) [Compound I-21] | – | – | 81.8 | 29.2
C[C@@H]1[C@H](n2cc(I)c(=O)[nH]c2=O)O[C@@](COP(=O)(N[C@@H](C)C(=O)OCc2ccccc2)Oc2ccccc2)(N=[N+]=[N-])[C@H]1O (stereo partly shown) [Compound I-25] | – | – | > 98.3 | 57.3
CCC(NP(=O)(OC[C@@]1(N=[N+]=[N-])O[C@@H](n2ccc(=O)[nH]c2=O)[C@@H](C)[C@@H]1O)Oc1ccccc1)C(=O)OC (stereo partly shown) [Compound I-26] | – | – | > 98.3 | 74.7
CCC(NP(=O)(O)OC[C@@]1(N=[N+]=[N-])O[C@@H](n2ccc(=O)[nH]c2=O)[C@@H](C)[C@@H]1O)C(=O)OC(C)C (stereo partly shown) [Compound I-27] | – | – | – | > 98.4
CC(C)OC(=O)C(C)(C)NP(=O)(OC[C@@]1(N=[N+]=[N-])O[C@@H](n2ccc(=O)[nH]c2=O)[C@@H](C)[C@@H]1O)Oc1ccccc1 (stereo partly shown) [Compound I-28] | – | – | > 98.4 | > 98.4
CCC(NP(=O)(O)OC[C@@]1(N=[N+]=[N-])O[C@@H](n2ccc(=O)[nH]c2=O)[C@@H](C)[C@@H]1O)C(=O)OC (stereo partly shown) [Compound I-29] | – | – | > 98.4 | > 98.4
CCCOC(=O)C(C)NP(=O)(O)OC[C@@]1(N=[N+]=[N-])O[C@@H](n2ccc(=O)[nH]c2=O)[C@@H](C)[C@@H]1O (stereo partly shown) [Compound I-30] | – | – | > 98.4 | > 98.4
CC(NP(=O)(OC[C@@]1(N=[N+]=[N-])O[C@@H](n2ccc(=O)[nH]c2=O)[C@@H](C)[C@@H]1O)Oc1ccccc1)C(=O)OC(C)(C)C (stereo partly shown) [Compound I-31] | – | – | > 98.4 | > 98.4
CCCCOC(=O)C(C)(C)NP(=O)(O)OC[C@@]1(N=[N+]=[N-])O[C@@H](n2ccc(=O)[nH]c2=O)[C@@H](C)[C@@H]1O [Compound I-32] | – | – | – | > 98.4
CCC(NP(=O)(O)OC[C@@]1(N=[N+]=[N-])O[C@@H](n2ccc(=O)[nH]c2=O)[C@@H](C)[C@@H]1O)C(=O)OCc1ccccc1 (stereo partly shown) [Compound I-33] | – | – | – | > 98.4
CCC(NP(=O)(OC[C@@]1(N=[N+]=[N-])O[C@@H](n2ccc(=O)[nH]c2=O)[C@@H](C)[C@@H]1O)Oc1ccccc1)C(=O)OC(C)C (stereo partly shown) [Compound I-34] | – | – | > 98.4 | > 98.4
